Assay results as given in patent US10675257B2, “Method of treating cancer with a combination of benzylideneguanidine derivatives and chemotherapeutic agent” (InFlectis BioScience, priority 2015, dated 2020).
Entries after “also recorded” stand apart in the source; their conditions may differ. Structures can show the parent of a compound that is named as a salt.

Test system: glioblastoma cell line GL261
Experiment: GL261 glioblastoma tumor grafted on the chorio-allantoic membrane (CAM) of embryonated chicken eggs, tumor weight at E19
Assay type: in vivo, chicken embryo (Fertilized White Leghorn eggs)
Details: for Tumor weight (mg) (N = 18) / Tumor weight (mg) (N = 7 to 12): after 10 days of treatment; for Effect on GL261 tumor size/weight on the upper CAM, in words: test compound (100 nM) together with temozolomide (500 microM), compared to temozolomide alone or compound alone; for Effect on GL261 tumor size, in words: test compound alone (100 nM)
Description: Fertilized White Leghorn eggs were incubated at 38° C. with 60% relative humidity for 9 days. At this time (E9), the chorio-allantoic membrane (CAM) was dropped by drilling a small hole through the eggshell into the air sac and a 1 cm^2 window was cut in the eggshell above the CAM.
Cultured glioblastoma cell line GL261 were detached by trypsinization, washed with complete medium, labeled and suspended in serum free DMEM. An inoculum of GL261 cells was added onto the CAM of each egg. Eggs were then randomized in 6 groups.
They were then treated during 10 days, every two days (E10, E12, E14, E16, E18), by dropping 100 μl of test compound (100 nM), Temozolomide (500 microM), test compound (100 nM) and Temozolomide (500 microM), or Control (0.02% DMSO) onto the tumor.
At day E19 the upper portion of the CAM was removed, transferred in PBS and the tumors were then carefully cut away from normal CAM tissue. Tumors were then weighted. In parallel, a 1 cm^2 portion of the lower CAM was collected to evaluate the number of nodules, containing expressing cells. The fluorescent nodules were visualized in situ using whole mounts of fixed tissue and flattened between a hollow glass slide and a thick coverslip. In order to number the nodules, a thorough and complete visual scan of the piece of the lower CAM was done using fluorescent microscope.
Glioblastoma cell line GL261 was grafted on the chorio-allantoic membrane (CAM) of Fertilized White Leghorn eggs. The tumors were treated every two days with test compound ([…]), temolozomide (500 microM) or test compound (100 nM) and temozolomide (500 microM). For the control, the tumors were treated with 0.02% DMSO. Between seven (7) to eighteen (18) eggs were treated for each condition.

[1] = combination test compound/Temozolomide 100 nM/500microM, control 120.5
[2] = combination test compound/Temozolomide 100 nM/500 μM, control 106.65
[3] = test compound alone 100 nM, control (0.02% DMSO) 106.65

Structure (SMILES)	Tumor weight (mg) (N = 7 to 12) [2]	Effect on GL261 tumor size, in words	Effect on GL261 tumor size/weight on the upper CAM, in words	also measured
NC(N)=N/N=C/c1c(Cl)cccc1Cl [Compound 1, 2-(2,6-dichlorobenzylidene)hydrazine carboximidamide, reference compound]	–	–	–	Tumor weight (mg) (N = 18) [1]: 68.3 mg; Tumor weight (mg) (N = 18) (test compound alone 100 nM, control (0.02% DMSO) 120.5): 115 mg
CC(=O)O.N=C(N)N/N=C/c1ccncc1Cl [Compound 6, 2-[(3-chloropyridin-4-yl)methylidene]hydrazinecarboximidamide Acetate]	70.45 mg	–	–	Effect on GL261 tumor size/weight on the upper CAM, in words (Acetate): synergistic reduction of GL261 tumor weight; also recorded: synergistic effect to reduce the tumor size; Tumor weight (mg) (N = 7 to 12) [3]: 107.76 mg; Effect on GL261 tumor size, in words (Acetate): no effect on tumor size reduction; also recorded: no effect to reduce the tumor size
CC(C)CCO/N=C(\N)N/N=C/c1ccccc1Cl [Compound 11, Formate Salt]	67.29 mg	reduces the tumor size	–	Effect on GL261 tumor size/weight on the upper CAM, in words (Formate Salt): synergistic reduction of GL261 tumor weight; also recorded: synergistic effect to reduce the tumor size; Tumor weight (mg) (N = 7 to 12) [3]: 87.63 mg
C=CCO/N=C(\N)N/N=C/c1ccccc1Cl [Compound 15, 2-(2-chlorobenzylidene)-N′-(prop-2-en-1-yloxy)hydrazine Carboximidamide]	40.66 mg	reduces the tumor size	synergistic reduction of GL261 tumor weight; also recorded: synergistic effect to reduce the tumor size	Tumor weight (mg) (N = 7 to 12) [3]: 63.44 mg
N/C(=N\OCCO)N/N=C/c1ccccc1Cl [Compound 16, 2-(2-chlorobenzylidene)-N′-(2-hydroxyethoxy)hydrazinecarboximidamide]	48.11 mg	display anti-glioma activity by reducing the tumor size	further reduction of GL261 tumor weight; also recorded: further reduce the tumor size	–
CCO/N=C(\N)N/N=C/c1ccccc1Cl [Compound 20, 2-(2-chlorobenzylidene)-N′-ethoxyhydrazinecarboximidamide]	73.51 mg	display anti-glioma activity by reducing the tumor size	further reduction of GL261 tumor weight; also recorded: further reduce the tumor size	–
CCCO/N=C(\N)N/N=C/c1ccccc1Cl [Compound 22, 2-(2-chlorobenzylidene)-N-propoxyhydrazinecarboximidamide]	–	–	synergistic reduction of GL261 tumor weight; also recorded: synergistic effect to reduce the tumor size	Tumor weight (mg) (N = 18) [1]: 48.4 mg
CCSCCO/N=C(\N)N/N=C/c1ccccc1Cl [Compound 25, 2-(2-chlorobenzylidene)-N-[2-(ethylsulfanyl)ethoxy]hydrazinecarboximidamide]	43.6 mg	–	–	–
CCO/N=C(\N)N/N=C/c1ccncc1Cl [Compound 26, 2-[(3-chloropyridin-4-yl)methylidene]-N-ethoxyhydrazinecarboximidamide]	66.23 mg	display anti-glioma activity by reducing the tumor size	further reduction of GL261 tumor weight; also recorded: further reduce the tumor size	–
CCCCO/N=C(\N)N/N=C/c1ccccc1Cl [Compound 28, N′-butoxy-2-(2-chlorobenzylidene)hydrazinecarboximidamide]	51.33 mg	display anti-glioma activity by reducing the tumor size	further reduction of GL261 tumor weight; also recorded: further reduce the tumor size	–
CCCO/N=C(\N)N/N=C/c1c(F)cccc1Cl [Compound 29, 2-(2-chloro-6-fluorobenzylidene)-N′-propoxyhydrazinecarboximidamide]	54.13 mg	display anti-glioma activity by reducing the tumor size	further reduction of GL261 tumor weight; also recorded: further reduce the tumor size	–
CCCO/N=C(\N)N/N=C/c1ccncc1Cl [Compound 33, 2-[(3-chloropyridin-4-yl)methylidene]-N-propoxyhydrazinecarboximidamide]	62.42 mg	display anti-glioma activity by reducing the tumor size	further reduction of GL261 tumor weight; also recorded: further reduce the tumor size	–
Cn1nnc2c(C(N)=O)ncn2c1=O [Temozolomide, 3,4-dihydro-3-methyl-4-oxoimidazo [5,1-d]-as-tetazine-8-carboxamide, reference compound]	–	–	–	Tumor weight (mg) (N = 7 to 12) (Temozolomide alone 500 μM, control (0.02% DMSO) 106.65): 90.17 mg; Tumor weight (mg) (N = 18) (Temozolomide alone 500microM, control (0.02% DMSO) 120.5): 86.3 mg
